According to patent US10730872B2, “Pesticidally active heterocyclic derivatives with sulphur containing sustitutents” (SYNGENTA PARTICIPATIONS AG, priority 2015, dated 2020):

Columns and labels:
Diabrotica balteata = Diabrotica balteata (Corn Root Worm); type: in vivo; details: 96 h, application rate of 200 ppm, sprayed maize sprouts, L2 larvae, 4 days after infestation, read-out: effect in at least one of the two categories (mortality or growth inhibition)
Method: Maize sprouts placed onto an agar layer in 24-well microtiter plates were treated with aqueous test solutions prepared from 10,000 ppm DMSO stock solutions by spraying. After drying, the plates were infested with L2 larvae (6 to 10 per well). The samples were assessed for mortality and growth inhibition in comparison to untreated samples 4 days after infestation.

Euschistus heros = Euschistus heros (Neotropical Brown Stink Bug); type: in vivo; details: 120 h, application rate of 200 ppm, sprayed soybean leaves, N2 nymphs, 5 days after infestation, read-out: effect in at least one of the two categories (mortality or growth inhibition)
Method: Soybean leaves on agar in 24-well microtiter plates were sprayed with aqueous test solutions prepared from 10,000 ppm DMSO stock solutions. After drying the leaves were infested with N2 nymphs. The samples were assessed for mortality and growth inhibition in comparison to untreated samples 5 days after infestation.

[1] = tested on: Frankliniella occidentalis; assay: Frankliniella occidentalis (Western Flower Thrips): Feeding/Contact Activity; type: in vivo; details: foliar, 168 h, application rate of 200 ppm, sprayed sunflower leaf discs, population of mixed ages, 7 days after infestation
Method: (§1) Sunflower leaf discs were placed on agar in 24-well microtiter plates and sprayed with aqueous test solutions prepared from 10,000 DMSO stock solutions. After drying the leaf discs were infested with a Frankliniella population of mixed ages. The samples were assessed for mortality 7 days after infestation.

Myzus persicae [2] = assay: Myzus persicae (Green Peach Aphid): Feeding/Contact Activity; type: in vivo; details: foliar, 144 h, application rate of 200 ppm, sprayed sunflower leaf discs, aphid population of mixed ages, 6 days after infestation
Method: Sunflower leaf discs were placed onto agar in a 24-well microtiter plate and sprayed with aqueous test solutions prepared from 10,000 ppm DMSO stock solutions. After drying, the leaf discs were infested with an aphid population of mixed ages. The samples were assessed for mortality 6 days after infestation.

Plutella xylostella = Plutella xylostella (Diamond Back Moth); type: in vivo; details: 120 h, application rate of 200 ppm, artificial diet, L2 larvae, 5 days after infestation, read-out: effect in at least one of the two categories (mortality or growth inhibition)
Method: 24-well microtiter plates with artificial diet were treated with aqueous test solutions prepared from 10,000 ppm DMSO stock solutions by pipetting. After drying, the plates were infested with L2 larvae (10 to 15 per well). The samples were assessed for mortality and growth inhibition in comparison to untreated samples 5 days after infestation.

Spodoptera littoralis [3] = assay: Spodoptera littoralis (Egyptian Cotton Leaf Worm), sprayed cotton leaf discs; type: in vivo; details: foliar, 72 h, application rate of 200 ppm, L1 larvae, 3 days after infestation
Method in brief: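 Cotton leaf discs on agar sprayed with aqueous dilutions of 10,000 ppm DMSO stocks, dried, then infested with five L1 larvae. Mortality, anti-feeding and growth inhibition scored against untreated discs 3 days after infestation. Control recorded when any one category exceeds the untreated sample.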

Tetranychus urticae = Tetranychus urticae (Two-Spotted Spider Mite): Feeding/Contact Activity; type: in vivo; details: foliar, 192 h, application rate of 200 ppm, sprayed bean leaf discs, mixed population (mobile stages), 8 days after infestation
Method: Bean leaf discs on agar in 24-well microtiter plates were sprayed with aqueous test solutions prepared from 10,000 ppm DMSO stock solutions. After drying the leaf discs were infested with a mite population of mixed ages. The samples were assessed for mortality on mixed population (mobile stages) 8 days after infestation.

Aedes aegypti = assay: Aedes Aegypti (Yellow Fever Mosquito); type: in vivo; details: 200 ppm in ethanol, dry deposit in 12 well plates, adult females, after 48 h and/or 24 h
Method: Test solutions, at an application rate of 200 ppm in ethanol, were applied to 12 well tissue culture plates. Once the deposits were dry, five, two to five day old adult female Aedes aegypti were added to each well, and sustained with a 10% sucrose solution in a cotton wool plug. Assessment of knockdown was made one hour after introduction, and mortality was assessed at 24 and 48 hours after introduction.

Bemisia tabaci = Bemisia tabaci (Cotton White Fly): Feeding/Contact Activity; type: in vivo; details: foliar, 144 h, application rate of 200 ppm, sprayed cotton leaf discs, adult white flies, 6 days after incubation
Method: Cotton leaf discs were placed on agar in 24-well microtiter plates and sprayed with aqueous test solutions prepared from 10,000 ppm DMSO stock solutions. After drying the leaf discs were infested with adult white flies. The samples were checked for mortality 6 days after incubation.

Spodoptera littoralis [4] = assay: Spodoptera littoralis (Egyptian Cotton Leaf Worm), uptake by lettuce roots from agar; type: in vivo; details: 144 h, test rate of 12.5 ppm, mixed with agar, absorbed by lettuce roots, Spodoptera eggs, 6 days after infestation, read-out: effect in at least one of the three categories (mortality, anti-feeding, or growth inhibition)
Method in brief: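 Compound from 10,000 ppm DMSO stock mixed into agar; lettuce seeds grew 7 days, taking compound up via roots into the lid plate. Cut leaves infested with Spodoptera eggs; mortality, anti-feedant effect and growth inhibition scored against untreated samples 6 days after infestation.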

Thrips tabaci = Thrips tabaci (Onion Thrips) Feeding/Contact Activity; type: in vivo; details: foliar, 144 h, application rate of 200 ppm, sprayed sunflower leaf discs, thrips population of mixed ages, 6 days after infestation
Method: as §1, with “10,000 ppm” for “10,000”, “thrips” for “Frankliniella”, “6” for “7”

Myzus persicae [5] = assay: Myzus persicae (Green Peach Aphid). Intrinsic Activity; type: in vivo; details: 120 h, test rate of 12 ppm, mixed with sucrose solution, Parafilm, 5 days after infestation
Method: Test compounds prepared from 10,000 ppm DMSO stock solutions were applied by pipette into 24-well microtiter plates and mixed with sucrose solution. The plates were closed with a stretched Parafilm. A plastic stencil with 24 holes was placed onto the plate and infested pea seedlings were placed directly on the Parafilm. The infested plate was closed with a gel blotting paper and another plastic stencil and then turned upside down. The samples were assessed for mortality 5 days after infestation.

Structure (SMILES)	effect mortality or growth inhibition at 200 ppm (Diabrotica balteata) [%]	percent effect (mortality or growth inhibition) at 200 ppm (Euschistus heros) [%]	mortality at 200 ppm [1] [%]	mortality at 200 ppm (Myzus persicae [2]) [%]	percent effect (mortality or growth inhibition) at 200 ppm (Plutella xylostella) [%]	percent control (mortality, anti-feeding effect or growth inhibition) at 200 ppm (Spodoptera littoralis [3]) [%]	mortality at 200 ppm (Tetranychus urticae) [%]	pest or weed control at 200 ppm (Aedes aegypti) [%]	melting point [°C]	mortality at 200 ppm (Bemisia tabaci) [%]	percent effect (mortality, anti-feeding or growth inhibition) at 12.5 ppm (Spodoptera littoralis [4]) [%]	mortality at 200 ppm (Thrips tabaci) [%]	mortality at 12 ppm (Myzus persicae [5]) [%]
CCn1c(C(F)(F)F)cc2nc(-c3ncc(NC4CC4)cc3S(=O)(=O)CC)n(C)c2c1=O [Compound A1]	≥ 80	≥ 80	≥ 80	≥ 80	≥ 80	≥ 80	≥ 80	≥ 80	–	–	–	–	–
CCn1c(C(F)(F)F)cc2nc(-c3ncc(N(C(=O)C4CC4)S(C)(=O)=O)cc3S(=O)(=O)CC)n(C)c2c1=O [Compound A21, N-[6-[5-ethyl-3-methyl-4-oxo-6-(trifluoromethyl)imidazo[4,5-c]pyridin-2-yl]-5-ethylsulfonyl-3-pyridyl]-N-methylsulfonyl-cyclopropanecarboxamide]	–	–	–	–	–	–	–	–	232 to 234	–	–	–	–
CCS(=O)(=O)c1cc(Br)c(N)nc1-c1nc2cc(C(F)(F)F)n(C3CC3)c(=O)c2n1C [Compound A44, 2-(6-amino-5-bromo-3-ethylsulfonyl-2-pyridyl)-5-cyclopropyl-3-methyl-6-(trifluoromethyl)imidazo[4,5-c]pyridin-4-one]	≥ 80	≥ 80	–	≥ 80	≥ 80	≥ 80	–	–	–	≥ 80	≥ 80	≥ 80	–
CCS(=O)(=O)c1cc(Br)c(NC)nc1-c1nc2cc(C(F)(F)F)n(C3CC3)c(=O)c2n1C [Compound A52, 2-[5-bromo-3-ethylsulfonyl-6-(methylamino)-2-pyridyl]-5-cyclopropyl-3-methyl-6-(trifluoromethyl)imidazo[4,5-c]pyridin-4-one]	≥ 80	≥ 80	–	≥ 80	≥ 80	≥ 80	–	–	–	≥ 80	≥ 80	≥ 80	–
CCSc1cc(NC(=O)C2CC2)cnc1-c1nc2cc(C(F)(F)F)n(CC)c(=O)c2n1C [Compound A59, N-[6-[5-ethyl-3-methyl-4-oxo-6-(trifluoromethyl)imidazo[4,5-c]pyridin-2-yl]-5-ethylsulfanyl-3-pyridyl]cyclopropanecarboxamide]	≥ 80	–	–	≥ 80	≥ 80	≥ 80	–	–	–	–	–	–	≥ 80
